From patent publication US7598234B2, “Steroid derived antibiotics” (Brigham Young University, priority 1998, dated 2009)
≈ marks a conversion by molar mass, not a printed value.

How the values were obtained:
E. coli (ATCC 10798) [1] = assay: MIC and MBC measurement with E. coli (ATCC 10798); assay type: cell-based, Escherichia coli; conditions: Table 1; E. coli (ATCC 10798)
Procedure, shortened: (§1)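 Inocula mixed 1:1 with TSB containing graded concentrations of cholic acid derivatives, alone or with erythromycin or novobiocin added 15 min later. After static incubation for 24 h at 37 °C, turbidity read at 760 nm; non-turbid samples subcultured on TSA and CFU/mL compared with the starting inoculum.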

E. coli (ATCC 10798) [2] = assay: Sensitization to erythromycin (concentration lowering the MIC of erythromycin), E. coli (ATCC 10798); assay type: cell-based, Escherichia coli; conditions: Table 2, E. coli (ATCC 10798); for MBC (with erythromycin): erythromycin sensitization
E. coli (ATCC 10798) [3] = assay: Sensitization to novobiocin (concentration lowering the MIC of novobiocin), E. coli (ATCC 10798); assay type: cell-based, Escherichia coli; conditions: Table 3, E. coli (ATCC 10798); for MBC (with novobiocin): novobiocin sensitization
[4] = test system: Pseudomonas aeruginosa (ATCC 27853); assay: MIC and MBC measurement with Pseudomonas aeruginosa (ATCC 27853); assay type: cell-based
Procedure, shortened: as §1

[5] = test system: Pseudomonas aeruginosa (ATCC 27853); assay: Sensitization to novobiocin, Pseudomonas aeruginosa (ATCC 27853); assay type: cell-based; conditions: for MIC: concentration required to lower the MIC of novobiocin from >500 μg/mL to 1 μg/mL: Table 8, P. aureginosa (ATCC 27853); for FIC / concentration required to inhibit bacterial growth with antibiotic: Table 12, Pseudomonas aeruginosa ATCC 27853; for FIC: novobiocin (by order); for concentration required to inhibit bacterial growth with antibiotic: novobiocin (by order) at 0.5, 1.0 or 3.0 μg/mL
Procedure, shortened: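 Tube checkerboard in TSB: cholic acid derivatives added, then erythromycin or novobiocin 15 min later, antibiotics at 0.5, 1.0 or 3.0 μg/mL; stationary 37 °C, 24 h. Turbidity read at 760 nm; clear samples subcultured on TSA for CFU counts versus inoculum; FIC derived for synergy.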

[6] = test system: Salmonella typhimurium ATCC 14028; assay: MIC and MBC measurement with Salmonella typhimurium ATCC 14028; assay type: cell-based; conditions: Table 10
Procedure, shortened: as §1

[7] = test system: Enterococcus faecalis ATCC 29212; assay: MIC and MBC measurement with Enterococcus faecalis ATCC 29212; assay type: cell-based; conditions: Table 10
From the text: General: Microorganisms. Reference strains were purchased from the American Type Culture Collection (Rockville, Md.) or Bactrol disks from Difeo Laboratories (Detroit, Mich.). The following specific ATCC strains were used: 10798 Escherichia coli, 25922 Escherichia coli, 13883 Klebsiella pneumoniae, 27853 Pseudomonas aeruginosa, 14028 Salmonella typhimurium, 29212 Enterococcus faecalis, 25923 Staphylococcus aureus, 19615 Streptococcus pyogenes, and 90028 Candida albicans. Bacterial strains were maintained on Mueller-Hinton agar plates, and Candida albicans was maintained on Sabouraud Dextrose agar plates.
Tryptic soy broth (TSB) was made by dissolving 27.5 grams of tryptic soy broth without dextrose (DIFCO Laboratories) in 1 liter of deionized water and sterilizing at 121° C. for 15 minutes. Solid agar (TSA) plates were made by dissolving 6.4 grams of tryptic soy broth and 12 grams of agar (purified grade, Fischer Scientific) in 800 mL of deionized water and sterilizing at 121° C. for 20 minutes. Aliquots (20 mL) of the homogeneous solution were then poured in sterile plastic petri dishes (100×15 mm, Fisher Scientific). Solutions of compounds were made by dissolving the HCl salt of the respective compound into an appropriate amount of deionized and sterilized water followed by microfiltration.
(§2) Aliquots of 1 mL of the suspension were added to test tubes containing 1 mL TSB and incrementally varied concentrations of cholic acid derivatives and/or erythromycin or novobiocin. In the sensitization experiments, erythromycin or novobiocin were added 15 minutes later than the cholic acid derivatives. The samples were subjected to stationary incubation at 37° C. for 24 hours. Sample turbidity was determined by measuring absorption at 760 nm (HP 8453 UV-Visible Chemstation, Hewlett Packard). Additionally, an alliquot from each of the samples showing no measurable turbidity was subcultured on TSA plates (alliquots were diluted to provide fewer than 300 CFU). Colonies that grew on the subculture after overnight incubation were counted and the number of CFU/mL in the samples were calculated. The calculated values were compared to the number of CFU/mL in the original inoculum.

[8] = test system: Staphylococcus aureus ATCC 25923; assay: MIC and MBC measurement with Staphylococcus aureus ATCC 25923; assay type: cell-based; conditions: Table 10; Staphylococcus aureus ATCC 25923
Procedure, shortened: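 Bacteria incubated statically 24 h at 37 °C in TSB with graded compound concentrations (erythromycin or novobiocin added 15 min later in sensitization runs). MIC from turbidity at 760 nm; MBC by subculturing clear samples on TSA and comparing CFU/mL to inoculum.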

[9] = test system: Klebsiella pneumonia ATCC 13883; assay: Growth inhibition and FIC with novobiocin, Klebsiella pneumoniae ATCC 13883; assay type: cell-based; conditions: Table 12, novobiocin (by order) at 0.5, 1.0 or 3.0 μg/mL
Procedure: (§3) Alternatively, “fractional inhibitory concentration (FIC)” is also useful for determination of synergy between the compounds of the invention, or the compounds in combination with known antibiotics. FICs can be performed by checkerboard titrations of compounds in one dimension of a microtiter plate, and of antibiotics in the other dimension, for example. The FIC is calculated by looking at the impact of one antibiotic on the MIC of the other and vice versa. […] Preferably, an FIC of less than 0.5 is obtained for synergism. As used herein, FIC can be determined as follows:
as §2
(§4) To measure permeabilization, the FIC values for compounds 1, 2, 5, 106, 10, 112, 133, and 134 with erythromycin, novobiocin, and rifampicin were determined. Concentrations of 0.5, 1.0 or 3.0 μg/mL of these antibiotics were used, and the concentrations of the cholic acid derivatives required to inhibit bacterial growth of Gram-negative strains were determined.

[10] = test system: Salmonella typhimurium ATCC 14028; assay: Growth inhibition and FIC with novobiocin, Salmonella typhimurium ATCC 14028; assay type: cell-based; conditions: for FIC: Table 12, novobiocin (by order); for concentration required to inhibit bacterial growth with antibiotic: Table 12, novobiocin (by order) at 0.5, 1.0 or 3.0 μg/mL
Procedure: as §3, §2, §4

[11] = test system: Escherichia coli ATCC 25922; assay: Growth inhibition and FIC with rifampicin, Escherichia coli ATCC 25922; assay type: cell-based; conditions: for FIC: Table 13, rifampicin (by order); for concentration required to inhibit bacterial growth with antibiotic: Table 13, rifampicin (by order) at 0.5, 1.0 or 3.0 μg/mL
Procedure: as §3, §2, §4

[12] = test system: Klebsiella pneumonia ATCC 13883; assay: Growth inhibition and FIC with rifampicin, Klebsiella pneumoniae ATCC 13883; assay type: cell-based; conditions: for FIC: Table 13, rifampicin (by order); for concentration required to inhibit bacterial growth with antibiotic: Table 13, rifampicin (by order) at 0.5, 1.0 or 3.0 μg/mL
Procedure: as §3, §2, §4

[13] = test system: Pseudomonas aeruginosa ATCC 27853; assay: Growth inhibition and FIC with rifampicin, Pseudomonas aeruginosa ATCC 27853; assay type: cell-based; conditions: Table 13, Pseudomonas aeruginosa ATCC 27853^b; for FIC: rifampicin (by order); for concentration required to inhibit bacterial growth with antibiotic: rifampicin (by order) at 0.5, 1.0 or 3.0 μg/mL
Procedure: as §3, §2, §4

[14] = test system: Salmonella typhimurium ATCC 14028; assay: Growth inhibition and FIC with rifampicin, Salmonella typhimurium ATCC 14028; assay type: cell-based; conditions: Table 13, Salmonella typhimurium ATCC 14028^b; for FIC: rifampicin (by order); for concentration required to inhibit bacterial growth with antibiotic: rifampicin (by order) at 0.5, 1.0 or 3.0 μg/mL
Procedure: as §3, §2, §4

[15] = Table 6, P. aureginosa (ATCC 27853)
[16] = Table 10, Pseudomonas aeruginosa ATCC 27853

SMILES	MBC (E. coli (ATCC 10798) [1]) [µg/mL]	MIC (E. coli (ATCC 10798) [1]) [µg/mL]	MIC: concentration required to lower the MIC of erythromycin from 70 μg/mL to 1 μg/mL (E. coli (ATCC 10798) [2]) [µg/mL]	MBC (with erythromycin) (E. coli (ATCC 10798) [2]) [µg/mL]	MIC: concentration required to lower the MIC of novobiocin from >500 μg/mL to 1 μg/mL (E. coli (ATCC 10798) [3]) [µg/mL]	MBC (with novobiocin) (E. coli (ATCC 10798) [3]) [µg/mL]	MBC [4, 15] [µg/mL]	MIC [4, 15] [µg/mL]	MBC [4, 16] [µg/mL]	MIC [4, 16] [µg/mL]	MIC: concentration required to lower the MIC of novobiocin from >500 μg/mL to 1 μg/mL [5] [µg/mL]	FIC [5]	concentration required to inhibit bacterial growth with antibiotic [5] [µg/mL]	MBC [6] [µg/mL]	MIC [6] [µg/mL]	MBC [7] [µg/mL]	MIC [7] [µg/mL]	MBC [8] [µg/mL]	MIC [8] [µg/mL]	concentration required to inhibit bacterial growth with antibiotic [9] [µg/mL]	also measured
C[C@H](CCCN(C)Cc1ccccc1)[C@H]1CC[C@H]2[C@@H]3[C@H](OCCN)C[C@@H]4C[C@H](OCCN)CC[C@]4(C)[C@H]3C[C@H](OCCN)[C@]12C [Compound 1]	34 (≈ 54.2 µM)	20 (≈ 31.9 µM)	2	20	20	34	>50	15 (≈ 23.9 µM)	38 (≈ 60.6 µM)	26 (≈ 41.5 µM)	6	0.16	3.9	>25	21 (≈ 33.5 µM)	50 (≈ 79.7 µM)	4.9 (≈ 7.82 µM)	5.7 (≈ 9.09 µM)	3.1 (≈ 4.94 µM)	4.7	FIC [10]: 0.22; concentration required to inhibit bacterial growth with antibiotic [10]: 4.4 µg/mL; FIC [11]: 0.099; concentration required to inhibit bacterial growth with antibiotic [11]: 0.74 µg/mL; FIC [12]: 0.043; concentration required to inhibit bacterial growth with antibiotic [12]: 0.40 µg/mL; FIC [13]: 0.096; concentration required to inhibit bacterial growth with antibiotic [13]: 1.5 µg/mL; FIC [14]: 0.089; concentration required to inhibit bacterial growth with antibiotic [14]: 0.84 µg/mL
C[C@H](CCCN(C)Cc1ccccc1)[C@H]1CC[C@H]2[C@@H]3[C@H](OCCCN)C[C@@H]4C[C@H](OCCCN)CC[C@]4(C)[C@H]3C[C@H](OCCCN)[C@]12C [Compound 2]	16 (≈ 23.9 µM)	7 (≈ 10.5 µM)	1	10	7	16	40 (≈ 59.8 µM)	9 (≈ 13.5 µM)	>17	11 (≈ 16.4 µM)	4	0.27	2.9	16 (≈ 23.9 µM)	13 (≈ 19.4 µM)	19 (≈ 28.4 µM)	3.4 (≈ 5.08 µM)	4.7 (≈ 7.02 µM)	1.0 (≈ 1.49 µM)	0.49	FIC [10]: 0.36; concentration required to inhibit bacterial growth with antibiotic [10]: 4.5 µg/mL; FIC [11]: 0.22; concentration required to inhibit bacterial growth with antibiotic [11]: 0.80 µg/mL; FIC [12]: 0.035; concentration required to inhibit bacterial growth with antibiotic [12]: 0.12 µg/mL; FIC [13]: 0.086; concentration required to inhibit bacterial growth with antibiotic [13]: 0.50 µg/mL; FIC [14]: 0.079; concentration required to inhibit bacterial growth with antibiotic [14]: 0.39 µg/mL
